Assay results taken from patent EP1977646A1, “Insecticidal hydroxyethyl thlourea derivatives” (Bayer CropScience AG, priority 2007, dated 2008).
Like-named read-outs stand apart in the source and are kept apart here.

Tests used:
[1] = tested on: Myzus persicae; experiment: Myzus persicae - test (spray application); format: in vivo; details: application rate of 500 g/ha, Chinese cabbage leaf-disks sprayed, all instars
Protocol: Myzus persicae - test; (spray application)
(§1) To produce a suitable preparation of active compound, 1 part by weight of active compound is mixed with the stated amount of solvent and emulsifier, and the concentrate is diluted with emulsifier-containing water to the desired concentration.
Chinese cabbage (Brassica pekinesis) leaf-disks infected with all instars of the green peach aphid (Myzus persicae), are sprayed with a preparation of the active ingredient at the desired concentration.
After the specified period of time, mortality in % is determined. 100% means that all aphids have been killed; 0% means that none of the aphids have been killed.

[2] = logP (HCOOH) by HPLC, EEC-Directive 79/831, Annex V.A8; format: physicochemical; details: gradient method; for chromatographic logP: hplc acetonitrile/0.1% hcooh
Protocol: A stirred mixture of 600 mg (3,4 mmol) 4-fluoro-1-aminoindane and 778 mg (4.37 mmol) 1,1-thiocarbonyldiimidazole in dichloromethane was kept at ambient temperature for 1,5 h. After addition of 230 mg (3.74 mmol) 2-aminoethanol dissolved in 3 mL dichloromethane the resulting mixture was stirred for further 72 h at ambient temperature. Then, the mixture was diluted with ethyl acetate and washed with 1 N HCl and saturated NaHCO3 solution. After phase separation, the organic phase was dried with solid Na2SO4, filtered and evaporated under reduced pressure. The residue was purified by chromatography (silica gel, cyclohexane/ethyl acetate = vol. 5:1) to afford 350 mg 1-(4-fluoro-2,3-dihydro-1H-inden-1-yl)-3-(2-hydroxyethyl)thiourea. The NMR spectrum was consistent with the proposed structure. logP^(1)) = 1,74 [formula] ^1) logP (HCOOH) determined according to EEC-Directive 79/831, Annex V.A8 using HPLC (gradient method, acetonitrile/0.1% HCOOH)
logP (HCOOH) determined according to EEC-Directive 79/831, Annex V.A8 using HPLC (gradient method, acetonitrile/0.1% HCOOH)

[3] = tested on: Aphis gossypii; experiment: Aphis gossypii - test (leaf dip); format: in vivo; details: foliar, application rate of 20 ppm, cotton leaves dipped
Protocol: Aphis gossypii - test [table] To produce a suitable preparation of active compound, 1 part by weight of active compound is mixed with the stated amount of solvent and emulsifier, and the concentrate is diluted with emulsifier-containing water to the desired concentration. Cotton leaves (Gossypium hirsutum) which are heavily infested by the cotton aphid (Aphis gossypii) are treated by being dipped into the preparation of the active compound of the desired concentration. After the specified period of time, the mortality in % is determined. 100 % means that all the aphids have been killed; 0 % means that none of the aphids have been killed.

[4] = tested on: Myzus persicae; experiment: Myzus-Test; oral (spray application); format: in vivo
Protocol: Myzus-Test; oral (spray application)
To produce a suitable preparation of active compound, 1 part by weight of active compound ist mixed with the stated amount of solvent and emulsifier, and the concentrate is diluted with emulsifier-containing water to the desired concentration.
Containers are infested with a mixed population of the green peach aphid (Myzus persicae), the aphids suck on a preparation of the active compound at the desired concentration.
After the specified period of time, mortality in % is determined. 100 % means that all aphids have been killed; 0 % means that none of the aphids have been killed.

[5] = tested on: Myzus persicae; experiment: Myzus persicae - test (drench); format: in vivo; details: soil, application rate of 20 ppm, cabbage plants drenched
Protocol: as §1
Cabbage plants (Brassica oleracea) which are heavily infested by the green peach aphid (Myzus persicae) are treated by being drenched with the preparation of the active compound of the desired concentration.
After the specified period of time, mortality in % is determined. 100 % means that all the aphids have been killed; 0 % means that none of the aphids have been killed.

[6] = tested on: Tetranychus urticae; experiment: Tetranychus urticae - test; OP-resistant (spray application); format: in vivo; details: in Phaseolus vulgaris, read-out: activity (mortality in %)
Protocol: Tetranychus urticae - test; OP-resistant (spray application)
as §1
French bean (Phaseolus vulgaris) which are heavily infested with all stages of the two spotted spidermite (Tetranychus urticae), are sprayed with a preparation of the active ingredient at the desired concentration.
After the specified period of time, mortality in % is determined. 100% means that all spider mites have been killed and 0% means that none of the spider mites have been killed.

[7] = application rate of 100 ppm, aphids suck on preparation, mixed population

Row | SMILES | chromatographic logP [2] | mortality at 500 g/ha [1] | mortality at 20 ppm [3] | further results
1 | OCCNC(=S)NC1CCc2c(F)cccc21 (stereo not shown) [1-14, 1-(4-fluoro-2,3-dihydro-1H-inden-1-yl)-3-(2-hydroxyethyl)thiourea] | 1.74 | ≥ 80% | ≥ 80% | 
2 | COCCNC(=S)NC1CCc2ccccc21 (stereo not shown) [1-4, 1-(2,3-dihydro-1H-inden-1-yl)-3-(2-methoxyethyl)thiourea] | 2.07 | ≥ 80% |  | mortality at 100 ppm [4, 7]: ≥ 80%
3 | OCCNC(=S)N[C@H]1CCc2ccccc21 [1-2, 1-[(1S)-2,3-dihydro-1H-inden-1-yl]-3-(2-hydroxyethyl)thiourea] | 1.65 | ≥ 80% | ≥ 80% | mortality at 100 ppm [4, 7]: ≥ 80%; logP (HCOOH) ([2]; acetonitrile/0.1% HCOOH): 1,56; mortality at 20 ppm [5]: ≥ 80%; mortality at 100 g/ha [6]: ≥ 80%
4 | OCCNC(=S)N[C@@H]1CCc2ccccc21 [1-3] | 1.65 |  |  | 
5 | COCCNC(=S)NC1CCc2c(F)cccc21 (stereo not shown) [1-17] | 2.21 | ≥ 80% |  | mortality at 100 ppm [4]: ≥ 80%
6 | CC(CO)NC(=S)N[C@H]1CCc2ccccc21 (stereo partly shown) [1-21] | 1.78 |  |  | 

More lines, main results first:

Row | chromatographic logP [2] | SMILES | mortality at 500 g/ha [1] | mortality at 20 ppm [3] | further results
7 | 1.64 | OCCN(CCO)C(=S)N[C@H]1CCc2ccccc21 [1-105] |  |  | 
8 | 1.79 | OCCNC(=S)N[C@H]1CCCc2ccccc21 [4-2] | ≥ 80% | ≥ 80% | 
9 | 1.68 | OCCNC(=S)NC1CCc2c(F)ccc(F)c21 (stereo not shown) [1-83] |  |  | 
10 | 1.42 | OCCNC(=S)NC1CCOc2ccccc21 (stereo not shown) [3-1] | ≥ 80% |  | 
